Values of other authors, collected in patent US11964046B2, “Topical composition for the control of pain in animals” (priority 2016, dated 2024).

System: piglets
[1] = lidocaine injected at least three minutes prior to castration, p<0.001

CCN(CC)CC(=O)Nc1c(C)cccc1C [lidocaine]
pain during castration (study conclusion) (injected): reduced pain during castration
intensity of calls during castration [1]: lower intensity
resistance movements during castration [1]: less resistance movements
